Measurements published in patent US10844077B2, “Thiazolyl-containing compounds for treating proliferative diseases” (Dana-Farber Cancer Institute, Inc., priority 2014, dated 2020).
Where two headings read alike, the source gives them in different places.

Legend:
Type in all cases: binding
broad panel of kinases [1] = target: broad panel of kinases (Homo sapiens, UniProt P51955); settings: NEK2; 1 μM
broad panel of kinases [2] = target: broad panel of kinases (Homo sapiens, UniProt Q9Y616); settings: IRAK3; 1 μM
broad panel of kinases [3] = target: broad panel of kinases (Homo sapiens, UniProt P00519, Y253F); settings: ABL1(Y253F)-phosphorylated; 1 μM
broad panel of kinases [4] = target: broad panel of kinases (Homo sapiens, UniProt Q9HBY8); settings: SGK2; 1 μM
broad panel of kinases [5] = target: broad panel of kinases (Homo sapiens, UniProt Q07912); settings: TNK2; 1 μM
broad panel of kinases [6] = target: broad panel of kinases (Homo sapiens, UniProt O15075); settings: DCAMKL1; 1 μM
broad panel of kinases [7] = target: broad panel of kinases (Homo sapiens, UniProt Q08881); settings: ITK; 1 μM
broad panel of kinases [8] = target: broad panel of kinases (Homo sapiens, UniProt P00533, DEL746-750); settings: EGFR(E746-A750del); 1 μM
broad panel of kinases [9] = target: broad panel of kinases (Homo sapiens, UniProt P53779); settings: JNK3; 1 μM
broad panel of kinases [10] = target: broad panel of kinases (Homo sapiens, UniProt Q8IU85); settings: CAMK1D; 1 μM
broad panel of kinases [11] = target: broad panel of kinases (Homo sapiens, UniProt P07333); settings: 1 μM
broad panel of kinases [12] = target: broad panel of kinases (Homo sapiens, UniProt P50750); settings: CDK9; 1 μM
broad panel of kinases [13] = target: broad panel of kinases (Homo sapiens, UniProt P29322); settings: EPHA8; 1 μM
broad panel of kinases [14] = target: broad panel of kinases (Homo sapiens, UniProt Q9P2K8, S808G); settings: GCN2(Kin.Dom.2, S808G); 1 μM
broad panel of kinases [15] = target: broad panel of kinases (Homo sapiens, UniProt Q8IY84); settings: NIM1; 1 μM
broad panel of kinases [16] = target: broad panel of kinases (Homo sapiens, UniProt P53350); settings: PLK1; 1 μM
broad panel of kinases [17] = target: broad panel of kinases (Homo sapiens, UniProt P28482); settings: ERK2; 1 μM
broad panel of kinases [18] = target: broad panel of kinases (Homo sapiens, UniProt O75676); settings: 1 μM
broad panel of kinases [19] = target: broad panel of kinases (Homo sapiens, UniProt Q16620); settings: TRKB; 1 μM
broad panel of kinases [20] = target: broad panel of kinases (Homo sapiens, UniProt Q05655); settings: PRKCD; 1 μM
broad panel of kinases [21] = target: broad panel of kinases (Homo sapiens, UniProt Q9Y6R4); settings: MAP3K4; 1 μM
broad panel of kinases [22] = target: broad panel of kinases (Homo sapiens, UniProt P09769); settings: FGR; 1 μM
broad panel of kinases [23] = target: broad panel of kinases (Homo sapiens, UniProt O00444); settings: PLK4; 1 μM
broad panel of kinases [24] = target: broad panel of kinases (Homo sapiens, UniProt O14936); settings: CASK; 1 μM
broad panel of kinases [25] = target: broad panel of kinases (Homo sapiens, UniProt Q7L7X3); settings: TAOK1; 1 μM
broad panel of kinases [26] = target: broad panel of kinases (Homo sapiens, UniProt Q15375); settings: EPHA7; 1 μM
broad panel of kinases [27] = target: broad panel of kinases (Homo sapiens, UniProt Q96D53); settings: ADCK4; 1 μM
broad panel of kinases [28] = target: broad panel of kinases (Homo sapiens, UniProt P33981); settings: TTK; 1 μM
broad panel of kinases [29] = target: broad panel of kinases (Homo sapiens, UniProt Q8TDR2); settings: STK35; 1 μM
broad panel of kinases [30] = target: broad panel of kinases (Homo sapiens, UniProt Q09013); settings: DMPK; 1 μM
broad panel of kinases [31] = target: broad panel of kinases (Homo sapiens, UniProt Q9BQI3); settings: EIF2AK1; 1 μM
broad panel of kinases [32] = target: broad panel of kinases (Homo sapiens, UniProt P23443); settings: S6K1; 1 μM
broad panel of kinases [33] = target: broad panel of kinases (Homo sapiens, UniProt Q8TDX7); settings: NEK7; 1 μM
broad panel of kinases [34] = target: broad panel of kinases (Homo sapiens, UniProt Q9P286); settings: PAK7; 1 μM
broad panel of kinases [35] = target: broad panel of kinases (Homo sapiens, UniProt P41240); settings: CSK; 1 μM
broad panel of kinases [36] = target: broad panel of kinases (Homo sapiens, UniProt P36897); settings: TGFBR1; 1 μM
broad panel of kinases [37] = target: broad panel of kinases (Homo sapiens, UniProt Q16584); settings: MLK3; 1 μM

Chain of broad panel of kinases (Homo sapiens, UniProt P07333) (P07333 20-972 limits assumed): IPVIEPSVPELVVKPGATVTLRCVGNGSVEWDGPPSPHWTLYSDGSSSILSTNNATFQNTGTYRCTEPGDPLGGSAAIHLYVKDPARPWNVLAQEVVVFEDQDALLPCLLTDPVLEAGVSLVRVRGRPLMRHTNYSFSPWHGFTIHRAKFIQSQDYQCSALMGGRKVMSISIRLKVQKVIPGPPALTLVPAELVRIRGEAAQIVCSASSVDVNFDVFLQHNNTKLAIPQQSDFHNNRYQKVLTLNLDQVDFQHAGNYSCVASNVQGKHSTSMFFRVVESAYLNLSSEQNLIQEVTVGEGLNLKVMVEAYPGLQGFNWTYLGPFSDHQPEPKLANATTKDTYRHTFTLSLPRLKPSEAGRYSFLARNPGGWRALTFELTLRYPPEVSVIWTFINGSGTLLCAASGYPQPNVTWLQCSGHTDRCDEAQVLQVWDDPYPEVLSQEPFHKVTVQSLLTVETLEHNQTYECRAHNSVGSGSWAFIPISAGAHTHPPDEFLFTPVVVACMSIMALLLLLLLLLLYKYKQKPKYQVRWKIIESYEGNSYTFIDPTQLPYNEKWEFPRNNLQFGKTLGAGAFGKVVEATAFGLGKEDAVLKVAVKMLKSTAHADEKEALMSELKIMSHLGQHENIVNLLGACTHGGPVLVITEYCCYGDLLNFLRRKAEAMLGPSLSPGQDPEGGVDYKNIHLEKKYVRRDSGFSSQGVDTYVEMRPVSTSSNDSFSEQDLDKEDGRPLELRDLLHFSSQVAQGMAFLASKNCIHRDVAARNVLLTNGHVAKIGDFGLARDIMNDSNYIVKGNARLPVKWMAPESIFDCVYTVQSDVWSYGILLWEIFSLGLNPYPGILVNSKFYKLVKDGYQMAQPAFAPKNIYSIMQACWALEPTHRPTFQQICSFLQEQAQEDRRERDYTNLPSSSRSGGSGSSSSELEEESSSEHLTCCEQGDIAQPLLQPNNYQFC
Chain of broad panel of kinases (Homo sapiens, UniProt P41240) (P41240 2-450 limits assumed): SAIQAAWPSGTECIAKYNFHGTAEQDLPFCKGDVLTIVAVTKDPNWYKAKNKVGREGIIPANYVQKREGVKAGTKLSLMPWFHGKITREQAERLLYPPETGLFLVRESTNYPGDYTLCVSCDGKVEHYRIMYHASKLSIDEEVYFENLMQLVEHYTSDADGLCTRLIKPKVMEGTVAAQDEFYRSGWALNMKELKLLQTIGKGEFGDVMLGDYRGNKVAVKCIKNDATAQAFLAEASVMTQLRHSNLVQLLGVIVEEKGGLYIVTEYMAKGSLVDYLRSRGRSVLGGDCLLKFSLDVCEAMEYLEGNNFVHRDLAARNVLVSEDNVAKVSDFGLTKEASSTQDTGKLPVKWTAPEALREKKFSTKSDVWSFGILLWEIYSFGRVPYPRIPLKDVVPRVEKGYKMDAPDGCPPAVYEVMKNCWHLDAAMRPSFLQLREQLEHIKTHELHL
Chain of broad panel of kinases (Homo sapiens, UniProt P36897) (P36897 34-503 limits assumed): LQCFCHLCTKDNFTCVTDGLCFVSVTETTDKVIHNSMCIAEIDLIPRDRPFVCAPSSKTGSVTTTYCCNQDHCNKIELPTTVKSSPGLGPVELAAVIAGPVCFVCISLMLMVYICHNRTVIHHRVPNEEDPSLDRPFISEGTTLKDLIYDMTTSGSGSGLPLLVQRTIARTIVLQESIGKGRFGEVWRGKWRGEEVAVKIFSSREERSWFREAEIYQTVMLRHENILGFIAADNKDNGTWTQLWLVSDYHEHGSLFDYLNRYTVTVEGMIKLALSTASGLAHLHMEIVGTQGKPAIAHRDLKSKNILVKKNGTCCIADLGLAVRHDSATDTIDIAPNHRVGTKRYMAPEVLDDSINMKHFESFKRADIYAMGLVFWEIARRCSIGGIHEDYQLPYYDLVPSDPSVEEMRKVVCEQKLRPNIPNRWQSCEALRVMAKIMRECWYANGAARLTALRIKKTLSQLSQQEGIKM
Chain of broad panel of kinases (Homo sapiens, UniProt P28482) (P28482 2-360 limits assumed): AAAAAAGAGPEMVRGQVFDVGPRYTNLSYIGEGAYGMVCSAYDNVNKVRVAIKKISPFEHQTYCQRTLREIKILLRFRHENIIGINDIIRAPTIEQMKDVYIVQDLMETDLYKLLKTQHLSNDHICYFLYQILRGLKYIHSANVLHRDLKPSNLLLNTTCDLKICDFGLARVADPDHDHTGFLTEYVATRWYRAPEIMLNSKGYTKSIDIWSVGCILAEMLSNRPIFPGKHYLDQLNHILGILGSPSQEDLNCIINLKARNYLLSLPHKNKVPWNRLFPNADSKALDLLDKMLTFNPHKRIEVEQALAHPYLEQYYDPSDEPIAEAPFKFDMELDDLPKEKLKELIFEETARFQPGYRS
Chain of broad panel of kinases (Homo sapiens, UniProt P09769) (P09769 2-529 limits assumed): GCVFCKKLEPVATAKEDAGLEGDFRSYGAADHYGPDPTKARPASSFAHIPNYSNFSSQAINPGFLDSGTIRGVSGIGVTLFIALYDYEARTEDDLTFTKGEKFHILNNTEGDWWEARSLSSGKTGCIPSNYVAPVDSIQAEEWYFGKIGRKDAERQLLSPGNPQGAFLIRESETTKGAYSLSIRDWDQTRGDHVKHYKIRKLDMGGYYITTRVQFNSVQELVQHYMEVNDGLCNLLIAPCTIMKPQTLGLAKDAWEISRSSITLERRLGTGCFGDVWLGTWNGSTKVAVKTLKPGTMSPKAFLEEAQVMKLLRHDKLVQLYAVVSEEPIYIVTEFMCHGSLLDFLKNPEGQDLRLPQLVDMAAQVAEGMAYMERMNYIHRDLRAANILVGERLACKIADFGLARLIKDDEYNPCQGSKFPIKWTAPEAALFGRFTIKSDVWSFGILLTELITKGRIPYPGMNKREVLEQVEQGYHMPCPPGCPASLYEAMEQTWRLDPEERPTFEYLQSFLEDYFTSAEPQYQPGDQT
Chain of broad panel of kinases (Homo sapiens, UniProt Q16620) (Q16620 32-822 limits assumed): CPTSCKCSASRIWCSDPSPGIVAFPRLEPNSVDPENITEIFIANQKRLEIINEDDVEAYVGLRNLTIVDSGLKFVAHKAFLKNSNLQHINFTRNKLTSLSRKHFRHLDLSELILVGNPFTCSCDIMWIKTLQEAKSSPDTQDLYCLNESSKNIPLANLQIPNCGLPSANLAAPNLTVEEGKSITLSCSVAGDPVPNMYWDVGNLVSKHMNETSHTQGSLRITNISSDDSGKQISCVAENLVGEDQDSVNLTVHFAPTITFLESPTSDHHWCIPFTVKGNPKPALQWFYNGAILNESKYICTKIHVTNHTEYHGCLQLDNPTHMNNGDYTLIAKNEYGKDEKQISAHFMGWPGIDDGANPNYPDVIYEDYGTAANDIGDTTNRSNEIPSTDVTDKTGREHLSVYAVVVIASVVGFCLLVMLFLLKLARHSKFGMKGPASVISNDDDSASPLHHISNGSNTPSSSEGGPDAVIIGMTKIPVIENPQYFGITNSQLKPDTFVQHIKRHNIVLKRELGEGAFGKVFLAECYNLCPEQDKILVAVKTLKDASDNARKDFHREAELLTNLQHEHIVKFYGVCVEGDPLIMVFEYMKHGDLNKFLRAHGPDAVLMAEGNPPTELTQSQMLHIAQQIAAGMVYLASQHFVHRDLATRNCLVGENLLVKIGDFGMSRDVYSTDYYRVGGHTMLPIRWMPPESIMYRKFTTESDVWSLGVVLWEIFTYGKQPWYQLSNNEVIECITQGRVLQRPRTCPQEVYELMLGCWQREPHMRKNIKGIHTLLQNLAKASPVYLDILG
Chain of broad panel of kinases (Homo sapiens, UniProt P00533, DEL746-750) (P00533 with tags, fused parts or gaps DEL746-750 limits assumed): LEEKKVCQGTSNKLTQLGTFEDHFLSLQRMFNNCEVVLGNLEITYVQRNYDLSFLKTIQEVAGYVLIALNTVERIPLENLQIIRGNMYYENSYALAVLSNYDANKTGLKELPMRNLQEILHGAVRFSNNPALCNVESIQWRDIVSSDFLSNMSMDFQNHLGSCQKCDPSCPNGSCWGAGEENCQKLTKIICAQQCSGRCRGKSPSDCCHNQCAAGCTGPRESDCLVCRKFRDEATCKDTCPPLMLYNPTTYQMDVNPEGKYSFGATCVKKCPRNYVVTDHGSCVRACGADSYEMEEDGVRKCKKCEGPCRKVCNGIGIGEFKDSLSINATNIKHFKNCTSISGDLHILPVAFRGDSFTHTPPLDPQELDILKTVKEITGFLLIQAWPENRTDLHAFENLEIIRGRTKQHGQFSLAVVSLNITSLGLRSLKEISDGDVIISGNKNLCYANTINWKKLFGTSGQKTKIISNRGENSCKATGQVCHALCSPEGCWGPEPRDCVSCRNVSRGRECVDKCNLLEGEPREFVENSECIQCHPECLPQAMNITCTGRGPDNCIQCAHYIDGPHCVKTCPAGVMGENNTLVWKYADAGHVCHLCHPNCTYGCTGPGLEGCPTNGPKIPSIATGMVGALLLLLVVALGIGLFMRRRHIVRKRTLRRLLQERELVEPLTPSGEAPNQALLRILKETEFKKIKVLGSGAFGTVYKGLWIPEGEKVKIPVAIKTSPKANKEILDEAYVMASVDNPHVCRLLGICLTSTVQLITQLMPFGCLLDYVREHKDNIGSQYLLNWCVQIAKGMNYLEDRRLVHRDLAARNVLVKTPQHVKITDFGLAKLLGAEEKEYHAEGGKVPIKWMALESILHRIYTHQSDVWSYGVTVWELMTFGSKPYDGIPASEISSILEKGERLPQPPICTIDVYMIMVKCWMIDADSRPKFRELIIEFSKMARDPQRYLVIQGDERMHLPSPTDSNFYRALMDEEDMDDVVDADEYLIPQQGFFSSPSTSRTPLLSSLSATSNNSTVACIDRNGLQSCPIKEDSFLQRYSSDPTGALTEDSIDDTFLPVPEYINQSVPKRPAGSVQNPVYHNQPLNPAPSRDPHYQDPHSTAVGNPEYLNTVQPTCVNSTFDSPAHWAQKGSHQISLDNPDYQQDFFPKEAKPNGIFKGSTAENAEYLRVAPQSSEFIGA

Structure (SMILES): C=CC(=O)N1CC[C@H](Nc2nc(CN3CCOCC3)cc(Nc3ncc(C(=O)Nc4c(C)cccc4C)s3)n2)C1 [Example I-2]
- percent of control binding remaining (lower = stronger binding) (broad panel of kinases [1]): 100%
- percent of control binding remaining (lower = stronger binding) (broad panel of kinases [2]): 93%
- percent of control binding remaining (lower = stronger binding) (broad panel of kinases [3]): 0.1%
- percent of control binding remaining (lower = stronger binding) (broad panel of kinases [4]): 72%
- percent of control binding remaining (lower = stronger binding) (broad panel of kinases [5]): 31%
- percent of control binding remaining (lower = stronger binding) (broad panel of kinases [6]): 87%
- percent of control binding remaining (lower = stronger binding) (broad panel of kinases [7]): 100%
- percent of control binding remaining (lower = stronger binding) (broad panel of kinases [8]): 3.7%
- percent of control binding remaining (lower = stronger binding) (broad panel of kinases [9]): 97%
- percent of control binding remaining (lower = stronger binding) (broad panel of kinases [10]): 100%
- percent of control binding remaining (lower = stronger binding) (broad panel of kinases [11]; CSF1R-autoinhibited): 1.4%
- percent of control binding remaining (lower = stronger binding) (broad panel of kinases [11]; CSF1R): 2.6%
- percent of control binding remaining (lower = stronger binding) (broad panel of kinases [12]): 90%
- percent of control binding remaining (lower = stronger binding) (broad panel of kinases [13]): 0.75%
- percent of control binding remaining (lower = stronger binding) (broad panel of kinases [14]): 85%
- percent of control binding remaining (lower = stronger binding) (broad panel of kinases [15]): 93%
- percent of control binding remaining (lower = stronger binding) (broad panel of kinases [16]): 92%
- percent of control binding remaining (lower = stronger binding) (broad panel of kinases [17]): 100%
- percent of control binding remaining (lower = stronger binding) (broad panel of kinases [18]; RPS6KA4(Kin.Dom.1-N-terminal)): 100%
- percent of control binding remaining (lower = stronger binding) (broad panel of kinases [18]; RPS6KA4(Kin.Dom.2-C-terminal)): 96%
- percent of control binding remaining (lower = stronger binding) (broad panel of kinases [19]): 94%
- percent of control binding remaining (lower = stronger binding) (broad panel of kinases [20]): 96%
- percent of control binding remaining (lower = stronger binding) (broad panel of kinases [21]): 83%
- percent of control binding remaining (lower = stronger binding) (broad panel of kinases [22]): 0.1%
- percent of control binding remaining (lower = stronger binding) (broad panel of kinases [23]): 73%
- percent of control binding remaining (lower = stronger binding) (broad panel of kinases [24]): 100%
- percent of control binding remaining (lower = stronger binding) (broad panel of kinases [25]): 93%
- percent of control binding remaining (lower = stronger binding) (broad panel of kinases [26]): 100%
- percent of control binding remaining (lower = stronger binding) (broad panel of kinases [27]): 95%
- percent of control binding remaining (lower = stronger binding) (broad panel of kinases [28]): 100%
- percent of control binding remaining (lower = stronger binding) (broad panel of kinases [29]): 99%
- percent of control binding remaining (lower = stronger binding) (broad panel of kinases [30]): 98%
- percent of control binding remaining (lower = stronger binding) (broad panel of kinases [31]): 100%
- percent of control binding remaining (lower = stronger binding) (broad panel of kinases [32]): 100%
- percent of control binding remaining (lower = stronger binding) (broad panel of kinases [33]): 100%
- percent of control binding remaining (lower = stronger binding) (broad panel of kinases [34]): 96%
- percent of control binding remaining (lower = stronger binding) (broad panel of kinases [35]): 1.6%
- percent of control binding remaining (lower = stronger binding) (broad panel of kinases [36]): 50%
- percent of control binding remaining (lower = stronger binding) (broad panel of kinases [37]): 100%

Structure (SMILES): C=CC(=O)N1CC[C@H](Nc2nccc(Nc3ncc(C(=O)Nc4c(C)cccc4C)s3)n2)C1 [Example I-3]
- percent of control binding remaining (lower = stronger binding) (broad panel of kinases [1]): 96%
- percent of control binding remaining (lower = stronger binding) (broad panel of kinases [2]): 93%
- % change compared to control (broad panel of kinases [3]): 0.1%
- percent of control binding remaining (lower = stronger binding) (broad panel of kinases [4]): 76%
- percent of control binding remaining (lower = stronger binding) (broad panel of kinases [5]): 43%
- percent of control binding remaining (lower = stronger binding) (broad panel of kinases [6]): 84%
- percent of control binding remaining (lower = stronger binding) (broad panel of kinases [7]): 98%
- percent of control binding remaining (lower = stronger binding) (broad panel of kinases [8]): 2.9%
- percent of control binding remaining (lower = stronger binding) (broad panel of kinases [9]): 91%
- percent of control binding remaining (lower = stronger binding) (broad panel of kinases [10]): 90%
- percent of control binding remaining (lower = stronger binding) (broad panel of kinases [11]; CSF1R-autoinhibited): 3.2%
- percent of control binding remaining (lower = stronger binding) (broad panel of kinases [11]; CSF1R): 3.3%
- percent of control binding remaining (lower = stronger binding) (broad panel of kinases [12]): 75%
- percent of control binding remaining (lower = stronger binding) (broad panel of kinases [13]): 0.45%
- percent of control binding remaining (lower = stronger binding) (broad panel of kinases [14]): 100%
- percent of control binding remaining (lower = stronger binding) (broad panel of kinases [15]): 84%
- percent of control binding remaining (lower = stronger binding) (broad panel of kinases [16]): 83%
- percent of control binding remaining (lower = stronger binding) (broad panel of kinases [17]): 100%
- percent of control binding remaining (lower = stronger binding) (broad panel of kinases [18]; RPS6KA4(Kin.Dom.1-N-terminal)): 100%
- percent of control binding remaining (lower = stronger binding) (broad panel of kinases [18]; RPS6KA4(Kin.Dom.2-C-terminal)): 100%
- percent of control binding remaining (lower = stronger binding) (broad panel of kinases [19]): 92%
- percent of control binding remaining (lower = stronger binding) (broad panel of kinases [20]): 95%
- percent of control binding remaining (lower = stronger binding) (broad panel of kinases [21]): 95%
- percent of control binding remaining (lower = stronger binding) (broad panel of kinases [22]): 0%
- percent of control binding remaining (lower = stronger binding) (broad panel of kinases [23]): 82%
- percent of control binding remaining (lower = stronger binding) (broad panel of kinases [24]): 98%
- percent of control binding remaining (lower = stronger binding) (broad panel of kinases [25]): 98%
- percent of control binding remaining (lower = stronger binding) (broad panel of kinases [26]): 100%
- percent of control binding remaining (lower = stronger binding) (broad panel of kinases [27]): 92%
- percent of control binding remaining (lower = stronger binding) (broad panel of kinases [28]): 78%
- percent of control binding remaining (lower = stronger binding) (broad panel of kinases [29]): 100%
- percent of control binding remaining (lower = stronger binding) (broad panel of kinases [30]): 98%
- percent of control binding remaining (lower = stronger binding) (broad panel of kinases [31]): 97%
- percent of control binding remaining (lower = stronger binding) (broad panel of kinases [32]): 97%
- percent of control binding remaining (lower = stronger binding) (broad panel of kinases [33]): 98%
- percent of control binding remaining (lower = stronger binding) (broad panel of kinases [34]): 97%
- percent of control binding remaining (lower = stronger binding) (broad panel of kinases [35]): 1.6%
- percent of control binding remaining (lower = stronger binding) (broad panel of kinases [36]): 97%
- percent of control binding remaining (lower = stronger binding) (broad panel of kinases [37]): 85%
